For 9 molecules, EC50 and CC50 results are on record in patent US7977349B2, “Substituted quinolones III” (Aicuris GmbH & Co. KG, priority 2006, dated 2011).

The structures appear in SMILES notation. Structures can show the parent of a compound that is named as a salt.

In one data set the test system is HCMV. In words: Anti-HCMV (anti-human cytomegalovirus) cytopathogenicity test. In kind it is cell-based. The conditions noted are these: concentration inhibiting the CPE by 50% vs untreated virus control, HCMV-infected NHDF cells, 6 days, visual assessment. As for the experimental part: Anti-HCMV (Anti-Human Cytomegalovirus) Cytopathogenicity Tests The test compounds are employed as 50 millimolar (mM) solutions in dimethyl sulfoxide (DMSO). Ganciclovir®, Foscarnet® and Cidofovir® are used as reference compounds. After the addition of 2 μl of the 50, 5, 0.5 and 0.05 mM DMSO stock solutions respectively to 98 μl portions of cell culture medium in row […] for duplicate determinations, 1:2 dilutions are carried out with 50 μl portions of medium up to row 11 of the 96-well plate. The wells in rows 1 and 12 each contain 50 μl of medium. 150 μl of a suspension of 1×10^4 cells (human prepuce fibroblasts [NHDF]) are then pipetted into each of the wells (row 1=cell control) and, in rows 2-12, a mixture of HCMV-infected and uninfected NHDF cells (M.O.I.=0.001-0.002), i.e. 1-2 infected cells per 1000 uninfected cells. Row 12 (without substance) serves as virus control. The final test concentrations are 250-0.0005 μM. The plates are incubated at 37° C./5% CO2 for 6 days, i.e. until all the cells in the virus controls are infected (100% cytopathogenic effect [CPE]). The wells are then fixed and stained by adding a mixture of formalin and Giemsa's dye (30 minutes), washed with double-distilled water and dried in a drying oven at 50° C. The plates are then assessed visually using an overhead microscope (plaque multiplier from Technomara). The following data can be obtained from the test plates: EC50 (HCMV)=substance concentration in μM which inhibits the CPE (cytopathic effect) by 50% compared with the untreated virus control;
Background: Damage to the host cells serves as the signal in cytopathic effect assays.

For data set [1], the system named is NHDF (human prepuce fibroblasts). In words: Cytostatic effects on NHDF cells in the anti-HCMV cytopathogenicity test. Type of data set: cell-based. The following applies: concentration at which no visible cytostatic effects on NHDF cells are evident vs untreated cell control; 6 days. How it is done: (§1) Anti-HCMV (Anti-Human Cytomegalovirus) Cytopathogenicity Tests The test compounds are employed as 50 millimolar (mM) solutions in dimethyl sulfoxide (DMSO). Ganciclovir®, Foscarnet® and Cidofovir® are used as reference compounds. After the addition of 2 μl of the 50, 5, 0.5 and 0.05 mM DMSO stock solutions respectively to 98 μl portions of cell culture medium in row […] for duplicate determinations, 1:2 dilutions are carried out with 50 μl portions of medium up to row 11 of the 96-well plate. The wells in rows 1 and 12 each contain 50 μl of medium. 150 μl of a suspension of 1×10^4 cells (human prepuce fibroblasts [NHDF]) are then pipetted into each of the wells (row 1=cell control) and, in rows 2-12, a mixture of HCMV-infected and uninfected NHDF cells (M.O.I.=0.001-0.002), i.e. 1-2 infected cells per 1000 uninfected cells. Row 12 (without substance) serves as virus control. The final test concentrations are 250-0.0005 μM. The plates are incubated at 37° C./5% CO2 for 6 days, i.e. until all the cells in the virus controls are infected (100% cytopathogenic effect [CPE]). The wells are then fixed and stained by adding a mixture of formalin and Giemsa's dye (30 minutes), washed with double-distilled water and dried in a drying oven at 50° C. The plates are then assessed visually using an overhead microscope (plaque multiplier from Technomara). The following data can be obtained from the test plates: CC50 (NHDF)=substance concentration in μM at which no visible cytostatic effects on the cells are evident compared with the untreated cell control;

Assay in data set [2]: as above
The conditions noted are these: human, concentration at which no visible cytostatic effects on NHDF cells are evident vs untreated cell control. In kind it is cell-based, human. How it is done:
as §1

Setting [3] is: Human betaherpesvirus 5, NHDF, 144 h.

In turn, `COc1c(N2CCC(C(=O)O)CC2)c(F)cc2c(=O)c(C(=O)NCc3ccc(OC(F)(F)F)cc3C)cn(CC(F)(F)F)c12` [Example 76, 1-[6-Fluoro-8-methoxy-3-({[2-methyl-4-(trifluoromethoxy)benzyl]amino}carbonyl)-4-oxo-1-(2,2,2-trifluoroethyl)-1,4-dihydroquinolin-7-yl]piperidine-4-carboxylic acid choline salt] registered an EC50 with HCMV of 0.002 µM. Moreover, the CC50 in data set [1] is 47 µM.

Take `COc1c(N2CCC(C(=O)O)CC2)c(F)cc2c(=O)c(C(=O)NCc3ccc(OC(F)(F)F)cc3C)cn(CC(F)(F)F)c12` [Example 47, 1-[6-Fluoro-8-methoxy-3-({[2-methyl-4-(trifluoromethoxy)benzyl]amino}carbonyl)-4-oxo-1-(2,2,2-trifluoroethyl)-1,4-dihydroquinolin-7-yl]piperidine-4-carboxylic acid]: a half-maximal response in the data set on HCMV (setting [3]) (EC50) required 0.004 µM. This molecule also gave a CC50 at 6 days in data set [2] of 86 µM.

Molecule `CCOc1c(N2CCC(C(=O)O)CC2)c(F)cc2c(=O)c(C(=O)NCc3ccc(OC(F)(F)F)cc3C)cn(CC(F)(F)F)c12` [Example 79, 1-[8-Ethoxy-6-fluoro-3-({[2-methyl-4-(trifluoromethoxy)benzyl]amino}carbonyl)-4-oxo-1-(2,2,2-trifluoroethyl)-1,4-dihydroquinolin-7-yl]piperidine-4-carboxylic acid] displayed an EC50 in the data set on HCMV (setting [3]) of 0.002 µM. Further, in data set [2], it took 125 µM to reach half-maximal cytotoxicity (CC50 at 6 days).

`COc1c(N2CCC3(CC2)CNC(=O)C3)c(F)cc2c(=O)c(C(=O)NCc3ccc(OC(F)(F)F)cc3C)cn(CC(F)(F)F)c12` [Example 33, 6-Fluoro-8-methoxy-N-[2-methyl-4-(trifluoromethoxy)benzyl]-4-oxo-7-(3-oxo-2,8-diazaspiro[4.5]dec-8-yl)-1-(2,2,2-trifluoroethyl)-1,4-dihydroquinoline-3-carboxamide] registered an EC50 in the data set with HCMV (setting [3]) of 0.017 µM. The molecule further came in with a CC50 at 6 days in data set [2] of 19 µM.

In the data set on HCMV, `COc1c(N2CCC(C(=O)O)CC2)c(F)cc2c(=O)c(C(=O)NCc3ccc(OC(F)(F)F)cc3C)cn(CC(F)(F)F)c12` [Example 75, 1-[6-Fluoro-8-methoxy-3-({[2-methyl-4-(trifluoromethoxy)benzyl]amino}carbonyl)-4-oxo-1-(2,2,2-trifluoroethyl)-1,4-dihydroquinolin-7-yl]piperidine-4-carboxylic acid diethanolamine salt] yielded an EC50 of 0.002 µM. Moreover, in data set [1], half-maximal cytotoxicity (CC50) was put at 47 µM.

With `COc1c(N2CCC(C(=O)O)CC2)c(F)cc2c(=O)c(C(=O)NCc3ccc(OC(F)(F)F)cc3C)cn(CCF)c12` [Example 49, 1-[6-Fluoro-1-(2-fluoroethyl)-8-methoxy-3-({[2-methyl-4-(trifluoromethoxy)benzyl]amino}carbonyl)-4-oxo-1,4-dihydroquinolin-7-yl]piperidine-4-carboxylic acid], it took 0.006 µM to reach a half-maximal effect in the data set on HCMV (setting [3]) (EC50). For the same molecule, it took 94 µM to reach half-maximal cytotoxicity in data set [2] (CC50 at 6 days).

`COc1c(N2C[C@@H](C)[C@@H](O)[C@@H](C)C2)c(F)cc2c(=O)c(C(=O)NCc3ccc(OC(F)(F)F)cc3C)cn(CC(F)(F)F)c12` [Example 32, 6-Fluoro-7-[(all-cis)-4-hydroxy-3,5-dimethylpiperidin-1-yl]-8-methoxy-N-[2-methyl-4-(trifluoromethoxy)benzyl]-4-oxo-1-(2,2,2-trifluoroethyl)-1,4-dihydroquinoline-3-carboxamide]: the EC50 in the data set with HCMV (setting [3]) worked out at 0.017 µM. The same molecule showed a CC50 at 6 days in data set [2] of 11 µM.

As for `COc1c(N2CCC3(CC2)CNC(=O)C3)c(F)cc2c(=O)c(C(=O)NCc3ccc(OC(F)(F)F)cc3C)cn(C3CC3)c12` [Example 34, 1-Cyclopropyl-6-fluoro-8-methoxy-N-[2-methyl-4-(trifluoromethoxy)benzyl]-4-oxo-7-(3-oxo-2,8-diazaspiro[4.5]dec-8-yl)-1,4-dihydroquinoline-3-carboxamide], the response in the data set with HCMV (setting [3]) was half-maximal at 0.04 µM (EC50). The same molecule showed a CC50 at 6 days in data set [2] of 11 µM.

Take `COc1c(N2CCC(C(=O)O)CC2)c(F)cc2c(=O)c(C(=O)NCc3ccc(OC(F)(F)F)cc3C)cn(C(C)CF)c12` (stereo not drawn) [Example 65]: the EC50 in the data set on HCMV (setting [3]) came to 0.079 µM. Also, the CC50 at 6 days in data set [2] was 106 µM.

For orientation: EC50 means the concentration that produces a half-maximal response. Low readings indicate greater potency, high ones weaker potency. One may read the CC50 as the concentration giving 50% cytotoxicity.
